Reference: patent publication US20250084056A1, “SUBSTITUTED OXOISOINDOLINYL PIPERIDINE-2,6-DIONE COMPOUNDS” (BRISTOL-MYERS SQUIBB COMPANY, priority 2023, published 2025)

Tests used:
Format in all cases: cell-based
Cyclin E1 = Cyclin E1 (Homo sapiens, UniProt P24864+Q96SW2); test: Cyclin E1 Cellular Degradation Assay (MSD); set-up: endogenous in cells; host or cells: OVCAR3; conditions: for DC50 / Dmax: Cyclin E1 cellular degradation; for Dmax: maximum degradation; for Ratio of GSPT1 DC50/Cyclin E1 DC50: selectivity for degradation of Cyclin E1 over GSPT1
Cyclin E1, sequence (P24864 whole entry): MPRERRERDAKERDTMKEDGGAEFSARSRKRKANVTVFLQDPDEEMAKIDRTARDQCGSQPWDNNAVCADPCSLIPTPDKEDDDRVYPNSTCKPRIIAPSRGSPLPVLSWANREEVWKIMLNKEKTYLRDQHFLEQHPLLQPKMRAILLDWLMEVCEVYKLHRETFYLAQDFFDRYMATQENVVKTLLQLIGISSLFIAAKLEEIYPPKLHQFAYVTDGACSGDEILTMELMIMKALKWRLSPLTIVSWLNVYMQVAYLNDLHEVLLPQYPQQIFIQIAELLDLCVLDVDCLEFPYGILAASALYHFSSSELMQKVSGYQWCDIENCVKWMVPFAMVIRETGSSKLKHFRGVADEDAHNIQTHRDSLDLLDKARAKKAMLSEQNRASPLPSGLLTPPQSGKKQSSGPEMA
Cyclin E1, sequence (Q96SW2 whole entry): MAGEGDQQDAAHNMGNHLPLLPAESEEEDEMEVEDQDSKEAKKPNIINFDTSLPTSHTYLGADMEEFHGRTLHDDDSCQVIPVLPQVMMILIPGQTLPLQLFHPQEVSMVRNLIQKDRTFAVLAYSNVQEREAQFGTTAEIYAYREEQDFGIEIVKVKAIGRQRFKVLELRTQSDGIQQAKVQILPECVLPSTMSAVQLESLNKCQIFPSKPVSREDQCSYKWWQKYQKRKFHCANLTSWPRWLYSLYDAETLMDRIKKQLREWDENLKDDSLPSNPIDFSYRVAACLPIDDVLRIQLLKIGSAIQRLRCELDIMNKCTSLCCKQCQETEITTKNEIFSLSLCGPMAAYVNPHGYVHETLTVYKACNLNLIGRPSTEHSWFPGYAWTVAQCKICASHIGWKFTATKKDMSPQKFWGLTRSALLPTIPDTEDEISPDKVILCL
Cyclin E1, sequence (Q16531 whole entry partner): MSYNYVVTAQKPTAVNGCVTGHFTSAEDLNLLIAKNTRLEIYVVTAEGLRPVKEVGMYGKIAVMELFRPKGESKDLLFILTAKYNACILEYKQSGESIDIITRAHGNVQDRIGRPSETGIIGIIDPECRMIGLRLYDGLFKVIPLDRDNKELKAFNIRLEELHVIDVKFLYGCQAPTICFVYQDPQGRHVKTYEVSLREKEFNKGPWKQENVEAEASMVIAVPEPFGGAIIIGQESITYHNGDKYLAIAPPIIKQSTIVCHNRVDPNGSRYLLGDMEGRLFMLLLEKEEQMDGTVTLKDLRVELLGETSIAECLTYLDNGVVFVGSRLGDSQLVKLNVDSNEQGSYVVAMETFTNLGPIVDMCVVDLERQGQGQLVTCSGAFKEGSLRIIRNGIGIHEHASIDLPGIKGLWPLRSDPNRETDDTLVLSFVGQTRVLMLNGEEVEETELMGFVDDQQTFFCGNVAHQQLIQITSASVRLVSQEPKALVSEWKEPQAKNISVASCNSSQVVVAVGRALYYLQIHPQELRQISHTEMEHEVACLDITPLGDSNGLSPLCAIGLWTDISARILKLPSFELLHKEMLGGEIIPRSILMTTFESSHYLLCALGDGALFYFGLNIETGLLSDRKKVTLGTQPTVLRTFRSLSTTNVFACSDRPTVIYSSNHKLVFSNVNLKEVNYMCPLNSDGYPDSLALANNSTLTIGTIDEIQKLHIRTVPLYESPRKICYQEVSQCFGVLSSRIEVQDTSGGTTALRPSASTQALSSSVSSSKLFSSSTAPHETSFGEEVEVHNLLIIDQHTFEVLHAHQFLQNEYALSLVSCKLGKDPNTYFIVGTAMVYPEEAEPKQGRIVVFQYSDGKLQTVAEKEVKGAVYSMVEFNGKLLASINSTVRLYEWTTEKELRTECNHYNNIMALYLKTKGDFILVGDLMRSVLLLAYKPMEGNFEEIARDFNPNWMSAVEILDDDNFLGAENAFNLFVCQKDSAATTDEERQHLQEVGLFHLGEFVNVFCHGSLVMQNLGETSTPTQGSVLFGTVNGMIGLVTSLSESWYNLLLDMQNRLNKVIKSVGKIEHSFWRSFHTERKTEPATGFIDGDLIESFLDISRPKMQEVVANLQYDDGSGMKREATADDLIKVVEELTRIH
Procedure, shortened: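 OVCAR3 cells treated with compound for 24 h at 37 °C, lysed, and cyclin E1 measured by MSD sandwich immunoassay (rabbit capture, mouse detection anti-CCNE1). Reference degrader at […] defined 110% response; DC50 and Dmax derived from response.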

GSPT1 = GSPT1 (Homo sapiens, UniProt P15170+Q96SW2); test: GSPT1 Cellular Degradation Assay (DF15-GSPT1-ePL); set-up: expressed in transfected cells; conditions: DF15-GSPT1-ePL cells, 20 hours
GSPT1, sequence (P15170 whole entry, the tested form may be a part): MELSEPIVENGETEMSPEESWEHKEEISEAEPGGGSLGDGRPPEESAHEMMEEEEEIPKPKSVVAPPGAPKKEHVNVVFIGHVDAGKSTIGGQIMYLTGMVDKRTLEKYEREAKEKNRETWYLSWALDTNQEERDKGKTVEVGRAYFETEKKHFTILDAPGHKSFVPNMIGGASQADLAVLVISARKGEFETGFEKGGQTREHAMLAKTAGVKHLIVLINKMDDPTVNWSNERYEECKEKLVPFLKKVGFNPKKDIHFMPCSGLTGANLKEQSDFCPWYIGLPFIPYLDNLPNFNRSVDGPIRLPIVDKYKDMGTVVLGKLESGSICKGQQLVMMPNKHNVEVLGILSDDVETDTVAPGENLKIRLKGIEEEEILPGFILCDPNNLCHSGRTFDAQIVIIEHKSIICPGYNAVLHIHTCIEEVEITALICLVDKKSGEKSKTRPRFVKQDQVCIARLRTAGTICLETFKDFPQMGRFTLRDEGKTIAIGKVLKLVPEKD
GSPT1, sequence (Q96SW2 whole entry, the tested form may be a part): as the sequence (Q96SW2 whole entry) above
GSPT1, sequence (Q16531 whole entry partner, the tested form may be a part): as the sequence (Q16531 whole entry partner) above
Procedure, shortened: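 Human DF15 cells co-expressing a GSPT1–ePL fusion were treated with compound in RPMI 1640/10% FBS for 20 h at 37 °C. GSPT1 level was read by enzyme-fragment-complementation luminescence after 60 min with detection reagent. The reference degrader at […] defined 75% response; DC50 and Dmax were reported.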

Phospho-Rb (Ser807/811) = test: Phospho-Retinoblastoma (pRB) Cellular Assay; conditions: Homo sapiens, OVCAR-3, NIH OVCAR3 cells, 24 hours; for IC50: concentration giving 50% response; for Emax: maximum response, reference compound at 10 μM = 100%, read-out: pRB Ymax
Procedure, shortened: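 OVCAR3 cells seeded overnight, then dosed with serial dilutions for 24 h at 37° C. Lysed with kit mix plus phosphatase inhibitor, ≥4 h at room temperature, read on EnVision; 100% response set by reference compound at 10 μM, giving IC50 and Ymax.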

DC50 (Cyclin E1) [nM] | Dmax (Cyclin E1) [%] | Ratio of GSPT1 DC50/Cyclin E1 DC50 (Cyclin E1) | DC50 (GSPT1) [nM] | Dmax (GSPT1) [%] | IC50 (Phospho-Rb (Ser807/811)) [nM] | Compound | Emax (Phospho-Rb (Ser807/811)) [%]
203 | 104 | >69 | > 14000 | 30 | 227 | COc1cc(Oc2ccccc2C(F)F)ccc1NC(=O)OCc1ccc2c(c1OC)C(=O)N(C1CCC(=O)NC1=O)C2 (stereo not shown) [Example 88, [2-(2,6-dioxopiperidin-3-yl)-4-methoxy-3-oxo-2,3-dihydro-1H-isoindol-5-yl]methyl N-{4-[2-(difluoromethyl)phenoxy]-2-methoxyphenyl}carbamate] | 10
71 | 105 | >196 | > 14000 | 27 | 158 | COc1c(COC(=O)Nc2ccc(Oc3ccc(F)c(F)c3)cc2F)ccc2c1C(=O)N(C1CCC(=O)NC1=O)C2 (stereo not shown) [Example 23, [2-(2,6-dioxopiperidin-3-yl)-4-methoxy-3-oxo-2,3-dihydro-1H-isoindol-5-yl]methyl N-[4-(3,4-difluorophenoxy)-2-fluorophenyl]carbamate] | 97
299 | 108 | >47 | > 14000 | 0 | 161 | CCN(C)C(=O)COc1c(COC(=O)Nc2ccc(Oc3ccc(F)c(F)c3)cc2)ccc2c1C(=O)N(C1CCC(=O)NC1=O)C2 (stereo not shown) [Example 177, [2-(2,6-dioxopiperidin-3-yl)-4-{[ethyl(methyl)carbamoyl]methoxy}-3-oxo-2,3-dihydro-1H-isoindol-5-yl]methyl N-[4-(3,4-difluorophenoxy)phenyl]carbamate] | 126
30 | 105 | >474 | > 14000 | 0 | 16 | O=C1CCC(N2Cc3ccc(COC(=O)Nc4ccc(Oc5cc(F)cc(F)c5)cc4F)c(OC4CCOCC4)c3C2=O)C(=O)N1 (stereo not shown) [Example 140, [2-(2,6-dioxopiperidin-3-yl)-4-(oxan-4-yloxy)-3-oxo-2,3-dihydro-1H-isoindol-5-yl]methyl N-[4-(3,5-difluorophenoxy)-2-fluorophenyl]carbamate] | 132
78 | 108 | >180 | > 14000 | 32 | 83 | COc1c(COC(=O)Nc2ccc(Oc3ccccc3)cc2)ccc2c1C(=O)N(C1CCC(=O)NC1=O)C2 (stereo not shown) [Example 2, [2-(2,6-dioxopiperidin-3-yl)-4-methoxy-3-oxo-2,3-dihydro-1H-isoindol-5-yl]methyl N-(4-phenoxyphenyl)carbamate] | 123
88 | 104 | >159 | > 14000 | 7 | 36 | COCCOc1c(COC(=O)Nc2ccc(Oc3ccc(F)c(F)c3)cc2F)ccc2c1C(=O)N(C1CCC(=O)NC1=O)C2 (stereo not shown) [Example 169, [2-(2,6-dioxopiperidin-3-yl)-4-(2-methoxyethoxy)-3-oxo-2,3-dihydro-1H-isoindol-5-yl]methyl N-[4-(3,4-difluorophenoxy)-2-fluorophenyl]carbamate] | 120
60 | 111 | >233 | > 14000 | 48 | 54 | [2H]C1([2H])C(=O)NC(=O)[C@@]([2H])(N2Cc3ccc(COC(=O)Nc4ccc(Oc5ccc(F)c(F)c5)cc4)c(OC)c3C2=O)C1([2H])[2H] [Example 180, {2-[(3S)-2,6-dioxo(3,4,4,5,5-^2H5s)piperidin-3-yl]-4-methoxy-3-oxo-2,3-dihydro-1H-isoindol-5-yl}methyl N-[4-(3,4-difluorophenoxy)phenyl]carbamate] | 108
